Experimental data: US20030040478A1, “Chemotherapy treatment” (priority 2002, published 2003)
Each block holds one compound with its values, some of them ahead of it.

How the values were obtained:
[1] = tested on: irinotecan-treated mice; conditions: mouse, in vivo
Procedure: (§1) FIG. 2. (A) Prevalence of positive bacterial aerobic cultures from mesenteric, splenic, and liver homogenates and whole blood. Groups of mice (n=20 mice for each treatment group) were pretreated for 3 days with either saline or h[Gly2]-GLP-2 as shown in FIG. 1A and euthanized 96 hrs after commencing irinotecan treatment (two injections of 280 mg/kg per dose). *=P<0.05, saline versus h[Gly2]-GLP-2 treated mice after irinotecan. […] (B) The leukocyte count in saline- and h[Gly2]-GLP-2 treated control and irinotecan-treated mice. + and *=p<0.05 for saline- and h[Gly2]-GLP-2-treated groups versus irinotecan-treated mice. #=P<0.05, irinotecan-treated mice pretreated with saline versus h[Gly2]-GLP-2.
Microbiology: At various time points following chemotherapy administration, aliquots of whole blood and tissue homogenates obtained using sterile technique were plated on blood agar plates and incubated at 37° C. for 48 hrs.

[2] = tested on: irinotecan-treated mice; assay: Leukocyte count after irinotecan; assay type: in vivo, mouse; conditions: mice following irinotecan treatment
Procedure: as §1
Leukocyte Count: Whole blood samples were collected in venipuncture tubes containing EDTA and analyzed using an automated whole blood sorter calibrated for mouse samples. Blood smears were performed on all samples to confirm the automated analysis.

[3] = tested on: irinotecan-treated CD1 mice, jejunum and colon crypts; assay: Crypt survival and cell number per hemi-crypt (histology) after irinotecan; assay type: in vivo, mouse; conditions: small and large intestine following irinotecan; FIGS. 3A-D
Procedure: FIG. 3. Mean crypt survival (A and C) and mean cell number per hemi-crypt (B and D) from the midjejunum (A and B) and colon (C and D) of control and irinotecan-treated CD1 mice administered either saline (vehicle) or h[Gly2]-GLP-2 as a 3 day pretreatment regimen. Dotted lines represent line of best fit for data shown between 60 and 96 h. Five mice per treatment group were euthanized for analysis commencing immediately prior to the first of two injections of irinotecan (280 mg/kg per dose) and at 12 hr intervals up to 96 hrs. Crypt survival was measured along the entire bowel circumference, and the mean cell number per hemi-crypt determined in 50 consecutive intact crypts per animal. *=P<0.05, **=P<0.001, saline versus h[Gly2]-GLP-2 treated mice.
Histological Analysis: Four- to six-micrometer histological cross sections from the intestine of each mouse were cut and stained with hematoxylin and eosin and micrometry was performed as described. Boushey, R. P. et al., Am. J. Physiol. 277: E937-E947, 1999. The number of cells per hemi-crypt column and the number of surviving crypts per circumference were measured in both the small and large intestine at 12 h intervals (n=5 mice per time point) following irinotecan administration as previously described. Wright, N. A. et al., Cell Tissue Kinet. 22: 425-50, 1989; Withers, H. R. et al., Int. J. Radiat. […] All slides were scored in a blinded fashion.

[4] = tested on: rodents with indomethacin-induced intestinal injury; conditions: Boushey et al. 1999, cited from earlier work
[5] = mice following indomethacin-induced intestinal injury
[6] = rodents with indomethacin-induced intestinal injury

bacterial colonies in homogenates [1]: No bacterial colonies were detected
Compound: CC[C@H](C)[C@H](NC(=O)[C@H](Cc1ccccc1)NC(=O)[C@H](CC(=O)O)NC(=O)[C@H](CCCNC(=N)N)NC(=O)[C@H](C)NC(=O)[C@H](C)NC(=O)[C@H](CC(C)C)NC(=O)[C@H](CC(N)=O)NC(=O)[C@H](CC(=O)O)NC(=O)[C@H](CC(C)C)NC(=O)[C@@H](NC(=O)[C@@H](NC(=O)[C@H](CC(N)=O)NC(=O)[C@H](CCSC)NC(=O)[C@H](CCC(=O)O)NC(=O)[C@H](CC(=O)O)NC(=O)[C@H](CO)NC(=O)[C@H](Cc1ccccc1)NC(=O)[C@H](CO)NC(=O)CNC(=O)[C@H](CC(=O)O)NC(=O)CNC(=O)[C@@H](N)Cc1c[nH]cn1)[C@@H](C)O)[C@@H](C)CC)C(=O)N[C@@H](CC(N)=O)C(=O)N[C@@H](Cc1c[nH]c2ccccc12)C(=O)N[C@@H](CC(C)C)C(=O)N[C@H](C(=O)N[C@@H](CCC(N)=O)C(=O)N[C@H](C(=O)N[C@@H](CCCCN)C(=O)N[C@H](C(=O)N[C@H](C(=O)N[C@@H](CC(=O)O)C(=O)O)[C@@H](C)O)[C@@H](C)CC)[C@@H](C)O)[C@@H](C)CC [h[Gly2]-GLP-2]

leukocyte count after irinotecan treatment [2]: significant leukopenia
Compound: CCc1c2c(nc3ccc(OC(=O)N4CCC(N5CCCCC5)CC4)cc13)-c1cc3c(c(=O)n1C2)COC(=O)[C@]3(O)CC [irinotecan, 7-ethyl-10-[4-(1-piperidino)-1-piperidino] carbonyloxycamptothecin]
number of crypts and number of cells within each crypt [3]: significant reduction in both the number of crypts and in the number of cells within each crypt

Compound: GLP-2: 33 amino acid product of the glucagon gene, an intestinotrophic peptide secreted by enteroendocrine cells (HADGSFSDEMNTILDNLAARDFINWLIQTKITD; Glucagon-like peptide 2; UniProt P01275 146-178, looked up)
bacterial infection in the liver and spleen [4, 5]: decreased bacterial infection in the liver and spleen
circulating bacteremia [4, 5]: markedly reduced circulating bacteremia
epithelial damage [4, 6]: reduces epithelial damage
survival [4, 6]: improves survival
